In the NIST ThermoML archive (doi:10.1016/j.jct.2010.02.001):
± gives the expanded uncertainty stated by the source.

What was measured:
[1] = refractive index (Na D-line) (dimensionless); xn = mol fraction of the nth substance listed; settings: 293.15 K, 101 kPa, Liquid, Standard Abbe refractometry
[2] = Liquid, Ebulliometric method (Recirculating still)

CCCO [propan-1-ol] + CCCCO
Settings	refractive index
[1], x1 = 1	1.3841 ± 0.0004

CCCO [propan-1-ol]
[2]
Settings	vapor or sublimation pressure [kPa]
337.95 K	25.6 ± 0.2
341.35 K	30.1 ± 0.3
346.15 K	37.4 ± 0.3
350.8 K	46 ± 0.3
353.25 K	51.1 ± 0.3
357.35 K	60.7 ± 0.3
362.45 K	74.7 ± 0.4
366.25 K	86.8 ± 0.4
370.4 K	101.8 ± 0.4
373.65 K	114.9 ± 0.5

CCCCO [butan-1-ol]
[2]
Settings	vapor or sublimation pressure [kPa]
356.35 K	25.3 ± 0.2
359.45 K	29.3 ± 0.2
362.95 K	33.5 ± 0.3
368.6 K	42.8 ± 0.3
373.45 K	52.5 ± 0.3
377.3 K	61.2 ± 0.3
381.9 K	72.8 ± 0.3
386.05 K	84.9 ± 0.4
391.95 K	105.3 ± 0.4
395.8 K	120.1 ± 0.4

CCCCO [butan-1-ol] + CCCO
[1]
Settings	refractive index
x2 = 0	1.3992 ± 0.0004
x2 = 0.0852	1.3979 ± 0.0004
x2 = 0.1369	1.3971 ± 0.0004
x2 = 0.1987	1.3962 ± 0.0004
x2 = 0.2741	1.395 ± 0.0004
x2 = 0.3521	1.3939 ± 0.0004
x2 = 0.4218	1.3928 ± 0.0004
x2 = 0.5	1.3916 ± 0.0004
x2 = 0.5742	1.3905 ± 0.0004
x2 = 0.6588	1.3892 ± 0.0004
x2 = 0.7123	1.3884 ± 0.0004
x2 = 0.7986	1.3871 ± 0.0004
x2 = 0.862	1.3862 ± 0.0004
x2 = 0.936	1.385 ± 0.0004
